Data from ChEMBL document CHEMBL1649394, “Cytotoxic and protective DNA damage of three new diterpenoids from the brown alga Dictoyota dichotoma” (Eur J Med Chem, 2011).
≈ marks a conversion by molar mass, not a printed value. Calls of active or inactive are those of the source. The rule behind the calls is not given here.

Columns and labels:
MCF7 = assay: Cytotoxicity against human MCF7 cells assessed as loss of cell monolayers after 96 hrs; format: functional, cell-based; settings: MCF7, 96 h
[1] = Toxicity in rat erythrocytes assessed as hemolysis at 2 mM; format: cell-based, Erythrocyte; settings: read-out: Activity
[2] = Cytotoxicity against human WI38 cells assessed as cell viability at 50 ug/ml after 96 hrs relative to control; format: cell-based, WI-38; settings: read-out: Activity
[3] = Cytotoxicity against human WI38 cells assessed as loss of cell monolayers after 96 hrs; format: cell-based; settings: WI-38, 96 h
Vero = assay: Cytotoxicity against african green monkey Vero cells assessed as loss of cell monolayers after 96 hrs; format: cell-based; settings: Chlorocebus sabaeus
[4] = Cytotoxicity against human WI38 cells assessed as cell viability at 10 ug/ml after 96 hrs relative to control; format: cell-based, WI-38; settings: read-out: Activity
Calf thymus DNA = assay: Protective activity against bleomycin-iron complex-induced calf thymus DNA damage assessed as chromogen formation at 0.1 mg/ml after 1 hr; format: nucleic-acid assay; settings: Bos taurus
[5] = Cytotoxicity against human WI38 cells assessed as cell viability at 100 ug/ml after 96 hrs relative to control; format: cell-based, WI-38; settings: read-out: Activity
[6] = Cytotoxicity against mouse EAC assessed as dead cells at 1 mg/ml after 2 hrs using trypan blue staining by hemocytometer analysis; format: functional, Ehrlich
HepG2 = assay: Cytotoxicity against human HepG2 cells assessed as loss of cell monolayers after 96 hrs; format: functional, cell-based; settings: HepG2, 96 h
Brain = assay: Antioxidant activity in rat brain/kidney homogenates assessed as inhibition of lipid peroxidation at 2 mM by […] method; format: functional, tissue-based
[7] = Cytotoxicity against mouse EAC assessed as dead cells at 25 ug/ml after 2 hrs using trypan blue staining by hemocytometer analysis; format: functional, Ehrlich

Compound | IC50 (MCF7) | hemolysis at 2000 µM [1] | viability at 96 h, 50 ug/ml [2] | IC50 [3] | IC50 (Vero) | viability at 96 h, 10 ug/ml [4] | Activity (Calf thymus DNA) | viability at 96 h, 100 ug/ml [5] | Activity [6] | IC50 (HepG2) | inhibition (Brain) | Activity [7]
C=C1CC[C@H](OC(C)=O)[C@]2(C)CCC3=C(C(C)C)CC[C@@]3(C)C[C@@]12O [AMIJIOL ACETATE] | 21.2 µg/mL | 0.7% | 12% | 14.2 µg/mL | 20.5 µg/mL | 65% | Active | 0% | 85.9% | 25.1 µg/mL | 83.3% | 
C=C1CC[C@H](O)[C@]2(C)C[C@H](OC(C)=O)C3=C(C(C)C)[C@H](OC(C)=O)C[C@@]3(C)C[C@@]12O [AMIJIOL-7,10-DIACETATE] | 30.5 µg/mL (≈ 72.5 µM) | 1.4% |  | 16.2 µg/mL (≈ 38.5 µM) | 21.4 µg/mL (≈ 50.9 µM) |  | Active |  | 71.2% | 47 µg/mL (≈ 112 µM) | 80.2% | 
CC(C)=CCC[C@@H](C)[C@H]1[C@@H](O)[C@@H]2C(C)=CC[C@H]2[C@@](C)(O)C[C@H]1O [DICTYOL C] | 140 µg/mL (≈ 436 µM) | 1.1% |  | 111 µg/mL (≈ 343 µM) | 161 µg/mL (≈ 498 µM) |  | inactive |  | 18% | 101 µg/mL (≈ 312 µM) | 57.7% | 
O=C1O[C@H]([C@@H](O)CO)C(O)=C1O [ASCORBIC ACID] |  | 0.85% |  |  |  |  |  |  |  |  | 88.6% | 
C/C1=C\[C@@H](O)C/C(C)=C/C[C@]2(C)CCC(C(C)C)=C2CC1 [DOLABELLATRIENOL] | 150 µg/mL (≈ 522 µM) | 5.75% |  | 101 µg/mL (≈ 349 µM) | 121 µg/mL (≈ 418 µM) |  | inactive |  | 15.1% | 102 µg/mL (≈ 355 µM) | 24.4% | 
CC(C)=CCC[C@@H](C)[C@@H]1CC=C(C)[C@@H]2CC=C(C)[C@H]2[C@@H]1O [ISOPACHYDICTYOL A] | 39.2 µg/mL (≈ 136 µM) | 1.4% |  | 22.4 µg/mL (≈ 77.6 µM) | 28.3 µg/mL (≈ 98.1 µM) |  | Active |  | 48.4% | 39.2 µg/mL (≈ 136 µM) | 59.9% | 
CC(C)=CCCC(C)C1CC/C(C)=C/CCC2COC(O)C21 (configuration not stated) [ISODICTYOHEMIACETAL] | 75.5 µg/mL (≈ 246 µM) | 0.75% |  | 84.6 µg/mL (≈ 276 µM) | 76.4 µg/mL (≈ 249 µM) |  | Active |  | 59.1% | 70.2 µg/mL (≈ 229 µM) | 57.4% | 
C=C1CC[C@@H]([C@H](C)CCC=C(C)C)[C@@H](O)[C@@H]2C(C)=CC[C@@H]12 [PACHYDICTYOL A] | 37.5 µg/mL (≈ 130 µM) | 2.45% |  | 24.6 µg/mL (≈ 85.3 µM) | 27.4 µg/mL (≈ 95 µM) |  | Active |  | 42.9% | 40.2 µg/mL (≈ 139 µM) | 50.2% | 
C=C1C[C@@H](O)[C@@H]([C@H](C)CCC=C(C)C)[C@@H](O)[C@@H]2C(C)=CC[C@@H]12 | 68.2 µg/mL (≈ 224 µM) | 1.1% |  | 62.6 µg/mL (≈ 206 µM) | 72.3 µg/mL (≈ 237 µM) |  | Active |  | 60.9% | 81.2 µg/mL (≈ 267 µM) | 61.6% | 
O=c1[nH]cc(F)c(=O)[nH]1 [FLUOROURACIL] | 2.3 µg/mL (≈ 17.7 µM) |  |  | 3.2 µg/mL (≈ 24.6 µM) | 6.5 µg/mL (≈ 50 µM) |  |  |  |  | 8.6 µg/mL (≈ 66.1 µM) |  | 99.5%
C=C1CC[C@H](O)[C@]2(C)CCC3=C(C(C)C)CC[C@@]3(C)C[C@@]12O [AMIJIOL] | 75.5 µg/mL (≈ 248 µM) | 0.5% |  | 84.6 µg/mL (≈ 278 µM) | 76.4 µg/mL (≈ 251 µM) |  | Active |  | 56% | 70.2 µg/mL (≈ 231 µM) | 59.2% | 
